Data published in the supplement of paper PMC8612539.
In brackets after ≈: the same amount, converted by molar mass.

Test system: Escherichia coli
Test: minimum inhibitory concentration (MIC)
Method: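 Broth microdilution MIC (Sensititre BOPO7F bovine plate, CLSI methods) of 19 antimicrobials against field isolates of P. multocida, M. haemolytica, H. somni (deep nasopharyngeal swabs) and E. coli, Enterococcus spp. (rectal swabs) from weaned dairy heifers. Incubation 16-24 h at 35 C. MIC is the lowest concentration preventing visible growth. Values with <= or > lie at the tested range limits. Trimethoprim-sulfamethoxazole is given as the trimethoprim component of a 1:19 mixture.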

CN[C@@H]1[C@H](O)[C@H](NC)[C@H]2O[C@@]3(O)C(=O)C[C@@H](C)O[C@H]3O[C@@H]2[C@H]1O [Spectinomycin]
Settings | minimum inhibitory concentration [µg/mL]
isolate (source animal id): 139 | > 64
isolate (source animal id): 140 | 16 (≈ 48.1 µM)
isolate (source animal id): 141 | > 64
isolate (source animal id): 142 | 16 (≈ 48.1 µM)
isolate (source animal id): 143 | > 64
isolate (source animal id): 144 | 16 (≈ 48.1 µM)
isolate (source animal id): 145 | > 64
isolate (source animal id): 146 | 16 (≈ 48.1 µM)
isolate (source animal id): 147 | > 64
isolate (source animal id): 148 | 16 (≈ 48.1 µM)
isolate (source animal id): 149 | 16 (≈ 48.1 µM)
isolate (source animal id): 150 | > 64
isolate (source animal id): 151 | 16 (≈ 48.1 µM)
isolate (source animal id): 152 | 16 (≈ 48.1 µM)
isolate (source animal id): 153 | 16 (≈ 48.1 µM)
isolate (source animal id): 154 | 16 (≈ 48.1 µM)
isolate (source animal id): 155 | > 64
isolate (source animal id): 156 | > 64
isolate (source animal id): 157 | > 64
isolate (source animal id): 158 | 16 (≈ 48.1 µM)
isolate (source animal id): 159 | ≤ 8
isolate (source animal id): 160 | > 64
isolate (source animal id): 161 | > 64
isolate (source animal id): 162 | 16 (≈ 48.1 µM)
isolate (source animal id): 163 | 16 (≈ 48.1 µM)
isolate (source animal id): 164 | 16 (≈ 48.1 µM)
isolate (source animal id): 165 | > 64
isolate (source animal id): 166 | ≤ 8
isolate (source animal id): 167 | 16 (≈ 48.1 µM)
isolate (source animal id): 168 | 16 (≈ 48.1 µM)
isolate (source animal id): 169 | 16 (≈ 48.1 µM)
isolate (source animal id): 170 | 16 (≈ 48.1 µM)
isolate (source animal id): 171 | 16 (≈ 48.1 µM)
isolate (source animal id): 172 | 16 (≈ 48.1 µM)
isolate (source animal id): 173 | 16 (≈ 48.1 µM)
isolate (source animal id): 174 | 16 (≈ 48.1 µM)
isolate (source animal id): 175 | 16 (≈ 48.1 µM)
isolate (source animal id): 176 | 16 (≈ 48.1 µM)
isolate (source animal id): 177 | 32 (≈ 96.3 µM)
isolate (source animal id): 178 | 16 (≈ 48.1 µM)
isolate (source animal id): 179 | 16 (≈ 48.1 µM)
isolate (source animal id): 180 | 16 (≈ 48.1 µM)
isolate (source animal id): 181 | > 64
isolate (source animal id): 182 | 16 (≈ 48.1 µM)
isolate (source animal id): 183 | 16 (≈ 48.1 µM)
isolate (source animal id): 184 | 16 (≈ 48.1 µM)
isolate (source animal id): 185 | 16 (≈ 48.1 µM)
isolate (source animal id): 186 | 16 (≈ 48.1 µM)
isolate (source animal id): 187 | 32 (≈ 96.3 µM)
isolate (source animal id): 188 | 32 (≈ 96.3 µM)
